Test results from the supplement of paper PMC10307832.

What was measured:
Experiment in all cases: relative viability (nuclei count vs DMSO), 5 days (fraction); higher = more cells survive
[1] = compound: CC1=CC(=NN1)NC2=CC(=NC(=N2)/C=C/C3=CC=CC=C3)N4CCN(CC4)C + N=C(N)NC(=N)NCCc1ccccc1 [Phenformin] (partner 250 µM)
Outline: (§1)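 Five library-drug doses in √10 steps were combined with a fixed anchor-drug dose, or a single drug was given alone, by pin tool to lung cancer cell lines in 1536-well plates the day after seeding. Nuclei were stained and counted after 5 days. Relative viability is the nuclei count in treated wells over that in vehicle wells, taken as the median of duplicate plates.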

Bortezomib + Decitabine = compound: CC(C)C[C@H](NC(=O)[C@H](Cc1ccccc1)NC(=O)c1cnccn1)B(O)O [Bortezomib] + Nc1ncn([C@H]2C[C@H](O)[C@@H](CO)O2)c(=O)n1 [Decitabine] (partner 2 µM)
Outline: as §1

Bortezomib + Olaparib = compound: CC(C)C[C@H](NC(=O)[C@H](Cc1ccccc1)NC(=O)c1cnccn1)B(O)O [Bortezomib] + O=C(c1cc(Cc2n[nH]c(=O)c3ccccc23)ccc1F)N1CCN(C(=O)C2CC2)CC1 [Olaparib] (partner 8 µM)
Outline: as §1

Obatoclax + Tozasertib = compound: COC1=CC(c2cc3ccccc3[nH]2)=N/C1=C\c1[nH]c(C)cc1C [Obatoclax] + Cc1cc(Nc2cc(N3CCN(C)CC3)nc(Sc3ccc(NC(=O)C4CC4)cc3)n2)n[nH]1 [Tozasertib] (partner 0.1 µM)
Outline: as §1

## NCI-H650
[1]; first compound 0.253 µM
  relative viability: 0.521
[1]; first compound 0.8 µM
  relative viability: 0.483
[1]; first compound 2.53 µM
  relative viability: 0.371
[1]; first compound 8 µM
  relative viability: 0.181
Bortezomib + Decitabine; first compound 0.0002 µM
  relative viability: 0.332
Bortezomib + Decitabine; first compound 0.000632 µM
  relative viability: 0.347
Bortezomib + Decitabine; first compound 0.002 µM
  relative viability: 0.286
Bortezomib + Decitabine; first compound 0.006325 µM
  relative viability: 0.216
Bortezomib + Decitabine; first compound 0.02 µM
  relative viability: 0.147
Bortezomib + Olaparib; first compound 0.0002 µM
  relative viability: 0.372
Bortezomib + Olaparib; first compound 0.000632 µM
  relative viability: 0.435
Bortezomib + Olaparib; first compound 0.002 µM
  relative viability: 0.398
Bortezomib + Olaparib; first compound 0.006325 µM
  relative viability: 0.165
Bortezomib + Olaparib; first compound 0.02 µM
  relative viability: 0.102
Obatoclax + Tozasertib; first compound 0.01 µM
  relative viability: 0.732
Obatoclax + Tozasertib; first compound 0.03162 µM
  relative viability: 0.779
Obatoclax + Tozasertib; first compound 0.3162 µM
  relative viability: 0.631
Obatoclax + Tozasertib; first compound 1 µM
  relative viability: 0.309
